Series [1] concerns N2a. Description: Neuroprotective activity against amyloid beta-induced neurotoxicity in mouse N2A cells after 24 hrs by MTS assay. Format: functional, cell-based.
Series [2] can be described thus: Inhibition of amyloid beta (1-42) fibril formation after 24 hrs by thioflavin T fluorescence method.
Series [3] deals with N2a. Description: Neurotoxicity against mouse N2A cells after 24 hrs by MTS assay. Format: toxicity, cell-based.
The nature of series [4]: Inhibition of amyloid beta (1-42) self-aggregation after 24 hrs by sedimentation assay with ELISA.
Series [5] can be described thus: Inhibition of amyloid beta (1-42) self-aggregation at 4uM after 24 hrs by sedimentation assay with ELISA.

Each structure is given as a SMILES string. Activity calls are given as the source filed them. The rule behind the calls is not given here.

Data on three compounds can be found in ChEMBL document CHEMBL1155258, “Computational selection of inhibitors of Abeta aggregation and neuronal toxicity” (Bioorg Med Chem, 2009).

Take `COC(=O)C[C@](O)(CCC(C)(C)O)C(=O)O[C@@H]1C(OC)=C[C@]23CCCN2CCc2cc4c(cc2[C@H]13)OCO4` [HARRINGTONINE]: the result (with N2a [1]; in series [2]) was inactive. In addition, in the series with N2a [3], the Activity result is reported as “Non-toxic”.

The IC50 is the concentration that gives 50% inhibition. Low values mean greater potency, high ones weaker potency. For orientation: inhibition means the share of the control response that was lost under treatment. The low end stands for a response near the control, the high end for a response far below the control. As for `O=C(Cc1ccccc1)NC(CSSCC(NC(=O)Cc1ccccc1)C(=O)O)C(=O)O` (centres undefined), the Activity result in the series on N2a [3] is on record as “Non-toxic”. In addition, the midpoint of inhibition in series [4], the IC50, lay at 1950 nM. The compound further showed an inhibition in series [5] of 80%.

Turning to `CNc1ccc(C(=O)NC(CCCCNC(=O)OCc2ccccc2)C(=O)O)cc1` (centres undefined), the Activity entry in the series with N2a [3] is recorded as “Non-toxic”. For the same compound, 2750 nM corresponded to half-maximal inhibition in series [4] (IC50). Besides, the inhibition in series [5] turned out to be 80%.
